The NIST ThermoML archive (doi:10.1016/j.jct.2012.06.012)

Experiment: xn = mol fraction of the nth substance listed
Conditions: Liquid, Vibrating tube method

CCCCCCCCCC [decane] + CCO
mass density [kg/m3]
Conditions | x2 = 0.0937 | x2 = 0.1011 | x2 = 0.4963 | x2 = 0.7526 | x2 = 0.9014
342.81 K, 1000 kPa | 691.26 | 691.32 | 698.84 | – | –
342.81 K, 2000 kPa | 692.32 | 692.38 | 699.92 | – | –
342.81 K, 3000 kPa | 693.37 | 693.43 | 700.98 | – | –
342.81 K, 4000 kPa | 694.4 | 694.46 | 702.03 | – | –
342.81 K, 5000 kPa | 695.42 | 695.48 | 703.09 | – | –
342.81 K, 6000 kPa | 696.42 | 696.48 | 704.13 | – | –
342.81 K, 7000 kPa | 697.41 | 697.47 | 705.18 | – | –
342.81 K, 8000 kPa | 698.4 | 698.46 | 706.22 | – | –
342.81 K, 9000 kPa | 699.37 | 699.44 | 707.25 | – | –
342.81 K, 10000 kPa | 700.35 | 700.42 | 708.27 | – | –
342.81 K, 11000 kPa | 701.32 | 701.38 | 709.28 | – | –
342.81 K, 12000 kPa | 702.28 | 702.33 | 710.29 | – | –
342.81 K, 13000 kPa | 703.21 | 703.27 | 711.26 | – | –
342.81 K, 14000 kPa | 704.14 | 704.2 | 712.23 | – | –
342.81 K, 15000 kPa | 705.06 | 705.12 | 713.19 | – | –
342.81 K, 16000 kPa | 705.95 | 706.02 | 714.13 | – | –
342.81 K, 17000 kPa | 706.83 | 706.9 | 715.07 | – | –
342.81 K, 18000 kPa | 707.7 | 707.77 | 715.97 | – | –
342.81 K, 19000 kPa | 708.56 | 708.63 | 716.86 | – | –
342.81 K, 20000 kPa | 709.39 | 709.45 | 717.73 | – | –
342.86 K, 1000 kPa | – | – | – | 711.77 | 726.79
342.86 K, 2000 kPa | – | – | – | 712.88 | 727.93
342.86 K, 3000 kPa | – | – | – | 713.97 | 729.05
342.86 K, 4000 kPa | – | – | – | 715.06 | 730.15
342.86 K, 5000 kPa | – | – | – | 716.15 | 731.27
342.86 K, 6000 kPa | – | – | – | 717.23 | 732.36
342.86 K, 7000 kPa | – | – | – | 718.31 | 733.45
342.86 K, 8000 kPa | – | – | – | 719.38 | 734.54
342.86 K, 9000 kPa | – | – | – | 720.44 | 735.62
342.86 K, 10000 kPa | – | – | – | 721.49 | 736.69
342.86 K, 11000 kPa | – | – | – | 722.54 | 737.75
342.86 K, 12000 kPa | – | – | – | 723.57 | 738.79
342.86 K, 13000 kPa | – | – | – | 724.58 | 739.82
342.86 K, 14000 kPa | – | – | – | 725.59 | 740.84
342.86 K, 15000 kPa | – | – | – | 726.57 | 741.84
